Measurements as given in patent US5270316A, “Condensed purine derivatives” (Kyowa Hakko Kogyo Co., Ltd., priority 1989, dated 1993).
Where two headings read alike, the source gives them in different places.

Tests used:
[1] = Diuretic activity (oral, urine collected for 6 hours); type: in vivo, rat (Wistar male rats); settings: Rattus norvegicus, rats; for response vs control in vivo at 25 mg/kg: 25 mg/kg oral; for response vs control in vivo at 1.6 mg/kg: 1.6 mg/kg oral; for response vs control in vivo at 6.25 mg/kg: 6.25 mg/kg oral
Method: Wistar male rats weighing 150 to 300 g were used after they were fasted for 18 hours. A test compound or saline (control) was orally administered to rats and urine was collected for 6 hours. The test was performed using 3 groups per the test compound, and each group consists of 3 animals. The urine was metered by a measuring cylinder and electrolytes (Na^+ and K^+) in the urine were assayed with a flame photometer (model […] manufactured by Hitachi Ltd.). Parameters in Table 3 are all expressed by relative value for control.

[2] = Acute toxicity, minimum lethal dose (oral, mice); type: in vivo; settings: male dd-mice, mortality observed for seven days
Method: The compounds were orally administrated to male dd-mice weighing 20±1 g. Minimum lethal dose (MLD) was determined by observing the mortality for seven days after the administration.

[3] = system: Glycerol-induced Renal Deficient Model; assay: Renal protecting activity (glycerol-induced renal deficient model): serum creatinine and urea nitrogen; type: in vivo, rat (Wistar male rats); settings: 10 mg/kg intraperitoneal, rats, 24 hours after glycerol injection, own control beside each compound; for Creatinine in serum, glycerol treated, test compound administrated: normal control 0.50; for Urea nitrogen in serum, glycerol treated, test compound administrated: normal control 15.2
Method: It is well known that subcutaneous or intramuscular administration of glycerol to rat induce acute renal insufficiency characterized by renal tubular disturbance [Can J. Physiol.
Wistar male rats (fasted both food and water for 18 hours) were used. A test compound or saline (control) was intraperitoneally administered (dose: 10 mg/kg) to rats. After 30 minutes rats were anesthesized with ether and the back skin was picked up and 0.8 ml/100 g of 50% glycerol was subcutaneously administered. 24 hours after the glycerol injection, the rats were anesthesized with ether and 5 ml of the blood was collected from the descending aorta. To obtain the serum, after allowing it to stand for 30 minutes or longer, the blood sample was centrifuged at 3000 rpm for 10 minutes. Creatinine in the serum sample was determined using autoanalyzer (AU510, Olympus) or clinical analysis kit of creatinine (Creatinine Test Wako; by Wako Pure Chemical Ind., Japan). Urea nitrogen in the serum was determined using autoanalyzer (AU510; made by Olympus Optical Co., Ltd, Japan) or clinical analysis kit of urea nitrogen (Urea nitrogen test wako; by Wako Pure Chemical Ind., Japan).

trachea = assay: Passive Schultz-Dale reaction (bronchodilatory effects), relaxation of sensitized trachea strips; parameters: species or system guinea pig (Hartley male); settings: Cavia porcellus; sensitized guinea pig trachea, EWA 1 μg/ml, 37° C.; read-out: Passive S-D reaction IC50 (concentration of 50% relaxation rate)
Method: Guinea pigs were passively sensitized as follows. […] After 24 hours, the guinea pigs were stunned and exsanguinated, and then trachea was excised. The zig-zag strips of the trachea were prepared by the method of Emmerson and Mackay [J. Pharm. […] After the contraction curves reached plateau the compounds were successively added in order to get cumulative concentration-relaxation curves.

[4] = system: Platelet Activating Factor (PAF)-induced mortality; assay: Inhibition of Platelet Activating Factor (PAF)-induced mortality; type: in vivo, mouse (male dd mice); settings: Mus musculus, 2 h, oral, mice, one hour before PAF 40 μg/kg i.v., p<0.05 vs control, read-out: PAF-induced mortality inhibition, minimum effective dose (MED)
Method: The experiment was performed by a minor modification of method of Carlson et al. [Agents and Actions, 21, 379 (1987)]. Groups each consisting of 10 male dd mice (weighing 28 to 32 g) were used, and 100 mg/kg of test compound or a saline (control) was orally administrated. One hour after the administration of test compound, 40 μg/kg of PAF (manufactured by Avanti Polar Lipids Co., Ltd.) was intravenously administered. Two hours after PAF injection, the mortality rate of the animals was observed.

[5] = relative value for control (1.00), read-out: Na+/K+
[6] = relative value for control, read-out: Excretion of K+
[7] = relative value for control, read-out: Excretion of Na+
[8] = relative value for control, read-out: Urine volume

SMILES	response vs control in vivo at 25 mg/kg [1, 5] [%]	response vs control in vivo at 25 mg/kg [1, 6] [%]	response vs control in vivo at 25 mg/kg [1, 7] [%]	response vs control in vivo at 25 mg/kg [1, 8] [%]	Minimum lethal dose (MLD) [2] [mg/kg]	Creatinine in serum, glycerol treated, test compound administrated [3] [mg/dL]	Urea nitrogen in serum, glycerol treated, test compound administrated [3] [mg/dL]	IC50 (trachea) [µM]	minimal effective dose [4] [mg/kg]	also measured
O=C1N2CCN=C2c2[nH]cnc2N1Cc1ccccc1 [9 Sa]	126	31	65	88	> 300					
CCCN1C(=O)N2C(=NCC2c2ccccc2)c2[nH]c(C3CCCC3)nc21 (centres unmarked) [11 Sa]					> 300					
CCCN1C(=O)N2CC(Cc3ccccc3)N=C2c2[nH]c(C3CCCC3)nc21 (centres unmarked) [12 Sa]					> 300					response vs control in vivo at 1.6 mg/kg [1, 5]: 152%; response vs control in vivo at 1.6 mg/kg [1, 6]: 33%; response vs control in vivo at 1.6 mg/kg [1, 7]: 102%; response vs control in vivo at 1.6 mg/kg [1, 8]: 159%
CCCN1C(=O)N2CC(C)(C)N=C2c2[nH]c(C3CCCC3)nc21 [14 Sa]	200	31	162	145	> 300	2.62 ± 0.40	94.8 ± 14.3	11	100	response vs control in vivo at 6.25 mg/kg [1, 5]: 123%; response vs control in vivo at 6.25 mg/kg [1, 6]: 43%; response vs control in vivo at 6.25 mg/kg [1, 7]: 75%; response vs control in vivo at 6.25 mg/kg [1, 8]: 113%
CCCN1C(=O)N2CC(c3ccccc3)N=C2c2[nH]c(C3CCCC3)nc21 (centres unmarked) [15 Sa]	151	26	90	95	> 300	2.34 ± 0.12	101.8 ± 11.8	> 40	100	response vs control in vivo at 6.25 mg/kg [1, 5]: 232%; response vs control in vivo at 6.25 mg/kg [1, 6]: 9%; response vs control in vivo at 6.25 mg/kg [1, 7]: 153%; response vs control in vivo at 6.25 mg/kg [1, 8]: 137%
CCCN1C(=O)N2CC(C)N=C2c2[nH]c(C3CCCC3)nc21 (centres unmarked) [16 Sa]						2.38 ± 0.24	80.9 ± 9.5			response vs control in vivo at 1.6 mg/kg [1, 5]: 152%; response vs control in vivo at 1.6 mg/kg [1, 6]: 31%; response vs control in vivo at 1.6 mg/kg [1, 7]: 99%; response vs control in vivo at 1.6 mg/kg [1, 8]: 80%
CCCC1CN2C(=O)N(CCC)c3nc(C4CCCC4)[nH]c3C2=N1 (centres unmarked) [17 Sa]					> 300	2.35 ± 0.11	88.0 ± 4.9			response vs control in vivo at 6.25 mg/kg [1, 5]: 291%; response vs control in vivo at 6.25 mg/kg [1, 6]: 18%; response vs control in vivo at 6.25 mg/kg [1, 7]: 158%; response vs control in vivo at 6.25 mg/kg [1, 8]: 138%
CCCN1C(=O)N2C(=NCC2CC)c2[nH]c(C3CCCC3)nc21 (centres unmarked) [18 Sa]	120	37	65	92	> 300	2.85 ± 0.33	101.2 ± 9.9			
CCCN1C(=O)N2C(=NCC2C)c2[nH]c(C3CCCC3)nc21 (centres unmarked) [19 Sa]	143	31	87	111	> 300					
Cn1c(=O)c2[nH]cnc2n(C)c1=O [Aminophylline, reference compound]						1.72 ± 0.07	30.6 ± 2.0			
CCCN1C(=O)N2CCN=C2c2c1ncn2C [Compound 1, 1-Methyl-4-n-propyl-1,4,7,8-tetrahydro-5H-imidazo[2,1-i]purin-5-one]					> 300	1.94 ± 0.16		0.003	> 100	
CCCN1C(=O)N2CC(CC)N=C2c2c1ncn2C (centres unmarked) [Compound 4, 8-Ethyl-1-methyl-4-n-propyl-1,4,7,8-tetrahydro-5H-imidazo[2,1-i]purin-5-one]					> 300			0.036	> 100	
CCCN1C(=O)N2CCN=C2c2[nH]c(C3CCCC3)nc21 [Compound 6, 2-Cyclopentyl-4-n-propyl-1,4,7,8-tetrahydro-5H-imidazo[2,1-i]purin-5-one]						1.81 ± 0.12		> 40	50	response vs control in vivo at 1.6 mg/kg [1, 5]: 155%; response vs control in vivo at 1.6 mg/kg [1, 6]: 30%; response vs control in vivo at 1.6 mg/kg [1, 7]: 102%; response vs control in vivo at 1.6 mg/kg [1, 8]: 121%
CCCN1C(=O)N2CCN=C2c2c1nc(C1CCCC1)n2C [Compound 7, 2-Cyclopentyl-1-methyl-4-n-propyl-1,4,7,8-tetrahydro-5H-imidazo[2,1-i]purin-5-one]	137	56	114	128		1.70 ± 0.17	64.3 ± 7.1	8.1	> 100	
CCCN1C(=O)N2CC(CC)N=C2c2[nH]c(C3CCCC3)nc21 (centres unmarked) [Compound 8, 2-Cyclopentyl-8-ethyl-4-n-propyl-1,4,7,8-tetrahydro-5H-imidazo[2,1-i]purin-5-one]						3.17 ± 0.32	121.2 ± 9.0	72		response vs control in vivo at 6.25 mg/kg [1, 5]: 145%; response vs control in vivo at 6.25 mg/kg [1, 6]: 1%; response vs control in vivo at 6.25 mg/kg [1, 7]: 46%; response vs control in vivo at 6.25 mg/kg [1, 8]: 42%
O=C1N2CCN=C2c2[nH]cnc2N1Cc1ccccc1 [Compound 9, 4-Benzyl-1,4,7,8-tetrahydro-5H-imidazo[2,1-i]purin-5-one]								> 40	100	
O=c1c2[nH]cnc2nc2n1CCCC2 [Compound 24, 1,5,6,7,8,10-Hexahydropyrido[1,2-a]purin-10-one]					> 300					
Cn1cnc2nc3n(c(=O)c21)CCCC3 [Compound 25, 1-Methyl-1,5,6,7,8,10-hexahydropyrido[1,2-a]purin-10-one]					> 300					
NS(=O)(=O)c1cc(C(=O)O)c(NCc2ccco2)cc1Cl [Furosemide, reference compound]	107			75		4.17 ± 0.41	150.3 ± 13.7			
